Laboratory results taken from patent US20040034093A1, “Methods for enhancing motor performance and/or endurance” (priority 2002, published 2004).

Experiments:
[1] = tested on: rodent; settings: rodent (Novelli et al., 1990); cited from earlier work
[2] = cited from earlier work; for absorption by the gut: Traber et al., 1992
[3] = tested on: tocopherol-depleted rats; settings: rats fed tocopherol for two weeks after chronic iron-dextran (Dillard et al., 1983); cited from earlier work
[4] = tested on: humans; settings: limited trials in humans (Clarkson 1995; Powers and Lennon 1999); cited from earlier work
[5] = relative to the corresponding reaction of αT (Cooney et al., 1993); cited from earlier work
[6] = tested on: methylcholanthrene-treated C3H/10T1/2 fibroblasts; settings: methylcholanthrene-treated C3H/10T1/2 fibroblasts (Cooney et al., 1993); cited from earlier work
[7] = tested on: iron-induced lipid peroxidation and occlusive thrombus formation; settings: Saldeen et al., 1999; cited from earlier work
[8] = liposomal tocopherol exposed to synthetic peroxynitrite (Christen et al., 1997); cited from earlier work
[9] = tested on: Normal, nontransgenic (NonTg) C57/B6 mice; test: rotorod performance task (motor function); type: in vivo; settings: diet supplemented with additional 200 mg/kg tocopherol from 40 days of age; versus basal diet or α-tocopherol supplemented diet
Protocol: Normal, nontransgenic (NonTg) C57/B6 mice were studied for efficacy of γT on motor performance and/or enhanced muscle function. Beginning at 40 days of age, animals were fed a basal AIN93G laboratory animal diet containing 75 mg/kg α-tocopherol and negligible γ-tocopherol; or the same diet supplemented with an additional 200 mg/kg α-tocopherol or γ-tocopherol. Motor function was measured by a standard rotorod performance task (Klivenyi et al., 1999). Animals were placed on a motorized, rubber-coated metal rod that was set to rotate at 1 rpm increasing by 1 rpm every 10 seconds (Klivenyi et al., 1999). The speed of the rod rotation at which the mouse falls off is taken as a measure of motor competency (Klivenyi et al., 1999). Each mouse was tested in three trials every 10 days.

SMILES | endurance during a swimming test [1] | absorption by the gut [2] | inhibition of systemic lipid oxidation [3] | muscle endurance [4] | rate of in vitro reaction with NO2 gas relative to αT [5] [times] | effectiveness at inhibiting neoplastic transformation relative to αT [6] [fold] | packaging into lipoproteins ([2]; relative to αT (Traber et al., 1992)) | potency at inhibition of iron-induced lipid peroxidation and occlusive thrombus formation relative to αT [7] | effectiveness at inhibiting lipid hydroperoxide formation relative to αT [8] | capability of performing the motor function task (rotorod) [9] | effectiveness at inhibiting systemic lipid oxidation relative to αT [3]
Cc1c(C)c2c(c(C)c1O)CC[C@@](C)(CCC[C@H](C)CCC[C@H](C)CCCC(C)C)O2 [α-tocopherol, reference compound] | extended rodent endurance | absorbed equally well | inhibited systemic lipid oxidation | did not extend muscle endurance | – | – | – | – | – | – | –
Cc1c(O)cc2c(c1C)O[C@](C)(CCC[C@H](C)CCC[C@H](C)CCCC(C)C)CC2 [γ-tocopherol] | – | absorbed equally well | inhibited systemic lipid oxidation | – | 6 | 4 | less effectively | 20-30 times | twice as effective | significantly more capable of performing the motor function task | approximately 35%
